In patent publication US20230382911A1 (Hoffmann-La Roche Inc., priority 2021, published 2023) one finds IC50 data, which are given here for 38 compounds.

For this experiment, the target named is Recombinant human Mat2a (Homo sapiens (Human), UniProt P31153). As to the kind of experiment: Determination of Mat2A activity: 384 well format absorbance-based Mat2A inhibition assay. In kind it is biochemical. To be noted: 12.5 nM Mat2A, 100 μM ATP and Methionine, 2% DMSO, 120 minutes at RT, Biomol Green, absorbance at 635 nm. As to the method: Determination of Mat2A Activity
Recombinant human Mat2a, sequence (P31153 whole entry): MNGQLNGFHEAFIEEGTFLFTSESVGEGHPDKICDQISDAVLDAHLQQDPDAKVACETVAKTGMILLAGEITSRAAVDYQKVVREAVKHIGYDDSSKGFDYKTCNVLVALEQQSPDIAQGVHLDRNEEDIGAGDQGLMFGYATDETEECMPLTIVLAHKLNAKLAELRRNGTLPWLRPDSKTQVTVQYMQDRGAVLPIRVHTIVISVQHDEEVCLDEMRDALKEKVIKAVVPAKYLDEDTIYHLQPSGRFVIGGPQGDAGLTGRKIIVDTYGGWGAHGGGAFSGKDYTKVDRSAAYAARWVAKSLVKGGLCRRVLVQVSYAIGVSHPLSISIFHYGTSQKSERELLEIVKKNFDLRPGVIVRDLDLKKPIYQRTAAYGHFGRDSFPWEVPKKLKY
Measurement of Mat2A inhibition is performed in 384 well format absorbance-based assay.
Recombinant human Mat2a (12.5 nM) and serial diluted compounds in DMSO (range of concentrations from 10 μM to […]) or controls (DMSO) are incubated for 15 minutes at room temperature (RT) in assay buffer containing 50 mM HEPES pH 7.5, 50 mM KCl, 50 mM MgCl2, 0.01% Tween 20 and 10 mM DTT. The reaction is initiated by the addition of the combined substrates ATP and Methionine, each at a final concentration of 100 μM. Final assay condition are 12.5 nM Mat2A, 100 μM ATP and Methionine Substrates and 2% DMSO. After 120 minutes of incubation at RT, the reaction is stopped by the addition of Biomol Green. The absorbance signal is measured at λ=635 nm with a multiplate reader (BMG Pherastar reader or equivalent) after 30 min of equilibration at RT.
What is called IC50 is the midpoint of a concentration-inhibition curve. On to `COc1ccccc1C(=O)n1nc(N)c2ccc(C3=CCCC3)nc21` [Example 23, [3-amino-6-(cyclopenten-1-yl)pyrazolo[3,4-b]pyridin-1-yl]-(2-methoxyphenyl)methanone], for which the concentration for half-maximal inhibition (IC50) turned out to be 20 nM.
The result for `COc1ccccc1C(=O)n1nc(N)c2ccc(N3CCC3)nc21` [Example 24, (3-amino-6-(azetidin-1-yl)-1H-pyrazolo[3,4-b]pyridin-1-yl)(2-methoxyphenyl)methanone] reads 300 nM.
The result for `Cc1ccccc1C(=O)n1nc(N)c2ccc(C(F)(F)F)nc21` [Example 25, (3-amino-6-(trifluoromethyl)-1H-pyrazolo[3,4-b]pyridin-1-yl)(o-tolyl)methanone] reads 290 nM; that for `COc1ccccc1C(=O)n1nc(N)c2ccc(C(F)(F)F)nc21` [Example 26], 120 nM; that for `COc1ccccc1C(=O)n1nc(N)c2ccc(N3CC(F)(F)C3)nc21` [Example 27, (3-amino-6-(3,3-difluoroazetidin-1-yl)-1H-pyrazolo[3,4-b]pyridin-1-yl)(2-methoxyphenyl)methanone], 69 nM.
The result for `Cc1ccccc1C(=O)n1nc(N)c2ccc(N3CC(F)(F)C3)nc21` [Example 28, (3-amino-6-(3,3-difluoroazetidin-1-yl)-1H-pyrazolo[3,4-b]pyridin-1-yl)(o-tolyl)methanone] reads 340 nM; that for `Cc1ccccc1C(=O)n1nc(N)c2ccc(C3CCCC3)nc21` [Example 29, (3-amino-6-cyclopentylpyrazolo[3,4-b]pyridin-1-yl)-(2-methylphenyl)methanone], 480 nM; that for `Cc1ccccc1C(=O)n1nc(N)c2ccc(C3=CCCC3)nc21` [Example 30, [3-amino-6-(cyclopenten-1-yl)pyrazolo[3,4-b]pyridin-1-yl]-(2-methylphenyl)methanone], 53 nM.
With `Cc1ccccc1C(=O)n1nc(N)c2ccc(C3CCC3)nc21` [Example 31, (3-amino-6-cyclobutyl-1H-pyrazolo[3,4-b]pyridin-1-yl)(o-tolyl)methanone], the IC50 worked out at 200 nM.
The result for `COc1ccccc1C(=O)n1nc(N)c2ccc(C3CCC3)nc21` [Example 32] reads 59 nM; that for `COc1ccccc1C(=O)n1nc(N)c2ccc(C3=CCOC3)nc21` [Example 35, [3-amino-6-(2,5-dihydrofuran-3-yl)pyrazolo[3,4-b]pyridin-1-yl]-(2-methoxyphenyl)methanone], 17 nM; that for `Cc1ccccc1C(=O)n1nc(N)c2ccc(C3=CCOC3)nc21` [Example 36, [3-amino-6-(2,5-dihydrofuran-3-yl)pyrazolo[3,4-b]pyridin-1-yl]-(2-methylyphenyl)methanone], 67 nM.
The result for `COC1CCCCC1C(=O)n1nc(N)c2ccc(C3CC3)nc21` (centres unmarked) [Example 37, (3-amino-6-cyclopropyl-1H-pyrazolo[3,4-b]pyridin-1-yl)(2-methoxycyclohexyl)methanone] reads 290 nM; that for `COc1ccccc1C(=O)n1nc(N)c2cc3c(nc21)CC(C)CC3` (centres unmarked) [Example 38, (3-amino-7-methyl-5,6,7,8-tetrahydro-1H-pyrazolo[3,4-b]quinolin-1-yl)(2-methoxyphenyl)methanone], 120 nM; that for `COc1ccccc1C(=O)n1nc(N)c2ccc(C3CC3(F)F)nc21` (centres unmarked) [Example 40, (3-amino-6-(2,2-difluorocyclopropyl)-1H-pyrazolo[3,4-b]pyridin-1-yl)(2-methoxyphenyl)methanone], 32 nM.
To `Cc1ccccc1C(=O)n1nc(N)c2ccc(C3CC3(F)F)nc21` (centres unmarked) [Example 41, (3-amino-6-(2,2-difluorocyclopropyl)-1H-pyrazolo[3,4-b]pyridin-1-yl)(o-tolyl)methanone] belongs 150 nM; to `COc1c(F)cccc1C(=O)n1nc(N)c2ccc(C3CC3(F)F)nc21` (centres unmarked) [Example 45, (3-amino-6-(2,2-difluorocyclopropyl)-1H-pyrazolo[3,4-b]pyridin-1-yl)(3-fluoro-2-methoxyphenyl)methanone], 91 nM.
In the case of `COc1c(F)cccc1C(=O)n1nc(N)c2cc(F)c(N3CCCC3)nc21` [Example 46, (3-amino-5-fluoro-6-(pyrrolidin-1-yl)-1H-pyrazolo[3,4-b]pyridin-1-yl)(3-fluoro-2-methoxyphenyl)methanone], the IC50 worked out at 55 nM.
The result for `COc1c(F)cccc1C(=O)n1nc(N)c2ccc(C3=CCOC3)nc21` [Example 47, [3-amino-6-(2,5-dihydrofuran-3-yl)pyrazolo[3,4-b]pyridin-1-yl]-(3-fluoro-2-methoxyphenyl)methanone] reads 25 nM.
To `Cc1ccccc1C(=O)n1nc(N)c2ccc(C3(C)CC3)nc21` [Example 48, (3-amino-6-(1-methylcyclopropyl)-1H-pyrazolo[3,4-b]pyridin-1-yl)(o-tolyl)methanone] belongs 130 nM; to `Cc1ncccc1C(=O)n1nc(N)c2ccc(C3CC3(F)F)nc21` (centres unmarked) [Example 49, (3-amino-6-(2,2-difluorocyclopropyl)-1H-pyrazolo[3,4-b]pyridin-1-yl)(2-methylpyridin-3-yl)methanone], 22 nM.
The result for `CC1OCCC1C(=O)n1nc(N)c2ccc(C3CC3(F)F)nc21` (centres unmarked) [Example 50, (3-amino-6-(2,2-difluorocyclopropyl)-1H-pyrazolo[3,4-b]pyridin-1-yl)(2-methyltetrahydrofuran-3-yl)methanone] reads 160 nM; that for `COc1ccccc1C(=O)n1nc(N)c2ccc(N3C4CCC3CC4)nc21` [Example 53, [3-amino-6-(7-azabicyclo[2.2.1]heptan-7-yl)pyrazolo[3,4-b]pyridin-1-yl]-(2-methoxyphenyl)methanone], 240 nM.
For the compound `Cc1c(F)cccc1C(=O)n1nc(N)c2ccc(C3CC3)nc21` [Example 54, (3-amino-6-cyclopropyl-1H-pyrazolo[3,4-b]pyridin-1-yl)(3-fluoro-2-methylphenyl)methanone], the half-inhibitory concentration (IC50) was found to be 210 nM.
To `Cc1cccc(C(=O)n2nc(N)c3ccc(C4CC4)nc32)c1C` [Example 55, (3-amino-6-cyclopropyl-1H-pyrazolo[3,4-b]pyridin-1-yl)(2,3-dimethylphenyl)methanone] belongs 320 nM; to `Nc1nn(C(=O)C2CCCCC2)c2nc(C3CC3)ccc12` [Example 56, (3-amino-6-cyclopropyl-1H-pyrazolo[3,4-b]pyridin-1-yl)(cyclohexyl)methanone], 430 nM.
To `COc1c(F)cccc1C(=O)n1nc(N)c2ccc(C3CC3)nc21` [Example 57, (3-amino-6-cyclopropyl-1H-pyrazolo[3,4-b]pyridin-1-yl)(3-fluoro-2-methoxyphenyl)methanone] belongs 110 nM; to `COc1cc(F)ccc1C(=O)n1nc(N)c2ccc(C3CC3)nc21` [Example 58, (3-amino-6-cyclopropyl-1H-pyrazolo[3,4-b]pyridin-1-yl)(4-fluoro-2-methoxyphenyl)methanone], 300 nM; to `CCc1ccccc1C(=O)n1nc(N)c2ccc(C3CC3)nc21` [Example 60, (3-amino-6-cyclopropyl-1H-pyrazolo[3,4-b]pyridin-1-yl)(2-ethylphenyl)methanone], 37 nM.
To `Nc1nn(C(=O)c2ccccc2OC(F)F)c2nc(C3CC3)ccc12` [Example 61, (3-amino-6-cyclopropyl-1H-pyrazolo[3,4-b]pyridin-1-yl)(2-(difluoromethoxy)phenyl)methanone] belongs 130 nM.
Turning to `Cc1ocnc1C(=O)n1nc(N)c2ccc(C3CC3)nc21` [Example 62, (3-amino-6-cyclopropyl-1H-pyrazolo[3,4-b]pyridin-1-yl)(5-methyloxazol-4-yl)methanone], the IC50 was found to be 350 nM.
To `Cc1ncsc1C(=O)n1nc(N)c2ccc(C3CC3)nc21` [Example 63, (3-amino-6-cyclopropyl-1H-pyrazolo[3,4-b]pyridin-1-yl)(4-methylthiazol-5-yl)methanone] belongs 130 nM; to `CC1OCCC1C(=O)n1nc(N)c2ccc(C3CC3)nc21` (centres unmarked) [Example 64, (3-amino-6-cyclopropyl-1H-pyrazolo[3,4-b]pyridin-1-yl)(2-methyltetrahydrofuran-3-yl)methanone], 41 nM; to `Cc1c(C#N)cccc1C(=O)n1nc(N)c2ccc(C3CC3)nc21` [Example 66, 3-(3-amino-6-cyclopropyl-1H-pyrazolo[3,4-b]pyridine-1-carbonyl)-2-methylbenzonitrile], 54 nM.
The result for `Nc1nn(C(=O)C2CCOCC2)c2nc(C3CC3)ccc12` [Example 67, (3-amino-6-cyclopropyl-1H-pyrazolo[3,4-b]pyridin-1-yl)(tetrahydro-2H-pyran-4-yl)methanone] reads 49 nM; that for `Cc1ncccc1C(=O)n1nc(N)c2ccc(C3CC3)nc21` [Example 68, (3-amino-6-cyclopropyl-1H-pyrazolo[3,4-b]pyridin-1-yl)(2-methylpyridin-methylpyridine-3-yl)methanone], 19 nM; that for `Nc1nn(C(=O)C2CCNC(=O)C2)c2nc(C3CC3)ccc12` (centres unmarked) [Example 69, 4-(3-amino-6-cyclopropyl-1H-pyrazolo[3,4-b]pyridine-1-carbonyl)piperidin-2-one], 79 nM.
The result for `COc1c(C)cccc1C(=O)n1nc(N)c2ccc(C3CC3)nc21` [Example 70, (3-amino-6-cyclopropyl-1H-pyrazolo[3,4-b]pyridin-1-yl)(2-methoxy-3-methylphenyl)methanone] reads 180 nM.
